Experiments:
[1] = molecular target: T1, Voltage-gated inwardly rectifying potassium channel KCNH2 (Homo sapiens, UniProt Q12809); test: Inhibition of hERG expressed in HEK cells assessed as Rb+ efflux ratio at 10 mg/L incubated for 4 mins (reference value: 79.71 to 94.98 %); type: toxicity, cell-based; set-up: scale not given: the % may be the effect or the level left; details: at 10 µg/mL
[2] = test system: Mus musculus; test: Analgesic activity against acetic acid-induced Kunming writhing mouse model assessed as inhibition of writhing at 10 mg/kg, sc pretreated with compound for 15 mins followed by acetic acid addition and measured after 15 mins relative to control; type: functional; details: 0.5 h, time 30 min
[3] = molecular target: T1, Voltage-gated inwardly rectifying potassium channel KCNH2; test: Inhibition of hERG expressed in HEK cells assessed as Rb+ efflux ratio at 1 mg/L incubated for 4 mins (reference value: 79.71 to 94.98 %); type: toxicity, cell-based; set-up: scale not given: the % may be the effect or the level left; details: at 1 µg/mL
[4] = Therapeutic index, ratio of LD50 for acute toxicity in sc dosed Kunming mouse to ratio of ED50 for analgesic activity against sc dosed acetic acid-induced Kunming writhing mouse model; type: organism-based; details: in vivo, read-out: TI
[5] = molecular target: T1, Voltage-gated inwardly rectifying potassium channel KCNH2; test: Inhibition of hERG expressed in HEK cells assessed as Rb+ efflux ratio at 100 mg/L incubated for 4 mins (reference value: 79.71 to 94.98 %); type: toxicity, cell-based; set-up: scale not given: the % may be the effect or the level left; details: at 100 µg/mL
[6] = Drug metabolism in sc dosed acetic acid-induced Kunming writhing mouse model assessed as metabolites in feces; type: ADME, organism-based; details: in vivo
[7] = Drug metabolism in sc dosed acetic acid-induced Kunming writhing mouse model assessed as metabolites in urine; type: ADME, organism-based; details: in vivo
[8] = Acute toxicity in sc dosed Kunming mouse assessed as mortality rate measured after 24 hrs; type: organism-based; details: in vivo
[9] = test system: Mus musculus; test: Analgesic activity against sc dosed acetic acid-induced Kunming writhing mouse model assessed as inhibition of writhing pretreated with compound for 15 mins followed by acetic acid addition and measured after 15 mins; type: functional; details: 0.5 h, time 30 min

T1 sequence (Q12809 whole entry): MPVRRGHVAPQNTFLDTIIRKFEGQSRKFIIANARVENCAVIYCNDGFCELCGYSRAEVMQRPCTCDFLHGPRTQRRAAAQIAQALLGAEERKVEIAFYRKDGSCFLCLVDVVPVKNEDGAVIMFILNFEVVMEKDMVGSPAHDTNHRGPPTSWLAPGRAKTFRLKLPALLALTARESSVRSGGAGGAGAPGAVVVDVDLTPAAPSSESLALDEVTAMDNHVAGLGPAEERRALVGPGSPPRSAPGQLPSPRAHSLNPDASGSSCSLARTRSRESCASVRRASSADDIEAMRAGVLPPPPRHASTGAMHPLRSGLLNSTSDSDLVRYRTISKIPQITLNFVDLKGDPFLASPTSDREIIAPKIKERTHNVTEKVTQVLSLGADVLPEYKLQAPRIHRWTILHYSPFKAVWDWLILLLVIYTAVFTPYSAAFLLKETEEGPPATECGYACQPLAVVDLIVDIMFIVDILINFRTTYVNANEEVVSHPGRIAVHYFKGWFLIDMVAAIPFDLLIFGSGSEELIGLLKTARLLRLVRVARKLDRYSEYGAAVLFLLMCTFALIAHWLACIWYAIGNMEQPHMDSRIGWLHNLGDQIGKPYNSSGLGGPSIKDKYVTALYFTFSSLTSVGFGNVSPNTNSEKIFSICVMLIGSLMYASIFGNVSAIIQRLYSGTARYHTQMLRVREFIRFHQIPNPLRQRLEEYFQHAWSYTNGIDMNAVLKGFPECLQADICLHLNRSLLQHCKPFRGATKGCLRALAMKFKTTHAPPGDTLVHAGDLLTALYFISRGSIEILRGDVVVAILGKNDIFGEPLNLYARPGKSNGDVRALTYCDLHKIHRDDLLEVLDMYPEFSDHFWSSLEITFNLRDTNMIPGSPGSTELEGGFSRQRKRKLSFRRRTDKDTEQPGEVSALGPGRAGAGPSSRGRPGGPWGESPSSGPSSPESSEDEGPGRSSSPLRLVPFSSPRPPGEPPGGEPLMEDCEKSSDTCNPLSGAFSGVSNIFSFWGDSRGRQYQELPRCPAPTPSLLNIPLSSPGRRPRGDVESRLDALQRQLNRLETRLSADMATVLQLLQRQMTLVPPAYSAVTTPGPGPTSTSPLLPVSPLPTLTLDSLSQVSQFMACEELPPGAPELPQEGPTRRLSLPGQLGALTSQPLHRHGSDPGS

Row | SMILES | Activity [1] | inhibition in vivo at 10 mg/kg [2] | Activity [3] | selectivity ratio [4] | Activity [5] | Drug metabolism [6] | Drug metabolism [7] | LD50 at 24 h [8] | ED50 [9]
1 | CCN1C[C@]2(OC(=O)c3ccccc3NS(=O)(=O)c3ccccn3)CC[C@H](OC)[C@]34C1[C@H](C[C@H]23)[C@@]1(O)C[C@H](OC)[C@H]2C[C@@H]4[C@]1(O)[C@H]2OC | 88.42% | 71.2% | 95.97% | > 85.1 | 73.6% | Metabolite_Detected | Metabolite_Detected | > 400 mg/kg | 4.7 mg/kg
2 | CCN1C[C@]2(OC(=O)c3ccccc3NC(=O)c3ccc(N(C)C)cc3)CC[C@H](OC)[C@]34C1[C@H](C[C@H]23)[C@@]1(O)C[C@H](OC)[C@H]2C[C@@H]4[C@]1(O)[C@H]2OC | 85.86% | 62.1% | 87.34% | 48.5 | 84.7% | Metabolite_Detected | Metabolite_Detected | 300 mg/kg | 6.2 mg/kg

— ChEMBL document CHEMBL5352433, “Design, synthesis, and biological evaluation of low-toxic lappaconitine derivatives as potential analgesics” (Eur J Med Chem, 2022)
